Common to all, as to conditions: 100 μM probenecid
Assay [1] relates to trigeminal neurons. Put plainly: Calcium imaging of cultured trigeminal neurons. The class given is cell-based, ICR mice. As for the experimental part: Trigeminal ganglia were dissected out of decapitated adult ICR mice in cold PBS and treated with 1.5 mg/ml of collagenase/dispase (Roche Diagnostics, USA) at 37° for 45 min, and then treated with 0.25% trypsin (Invitrogen, USA) for 15 min. The trigeminal neurons prepared thereby were then plated onto poly-L-lysinecoated coverslips in DMEM/F12 containing 10% FBS, 1% penicillin/streptomycin and 5 ng/ml of 2.5S NGF (Invitrogen, USA), followed by culture in a CO2 incubator for 48-72 hours.
Calcium imaging was performed with a confocal microscope (LSM5 Pascal, Carl Zeiss, Germany), and time-lapse images (excitation 488 nm/emission 514 nm) were collected every 3 seconds using Carl Zeiss ratio tool software (Carl Zeiss, Germany).
The trigeminal neurons prepared by the same manner as described in Example 2 were delayed-treated with 100 μM probenecid or 4 kinds of TRP activators: TRPM8 activator menthol 400 μM, TRPA1 activator cinnamaldehyde (MP Biomedicals, USA) 300 μM, TRPV1 activator capsaicin (Sigma-Aldrich, USA) 2 μM and TRPV1-3 activator 2-APB 300 μM.
The trigeminal neurons prepared by the same manner as described in Example 2 were treated with 300 μM 2-APB+100 μM probenecid, 300 μM 2-APB+2 μM capsaicin, 300 μM 2-APB+300 μM cinnamaldehyde+2 μM capsaicin, 300 μM 2-APB +2 μM capsaicin +100 μM probenecid, 300 μM 2-APB +400 μM menthol and 300 μM 2-APB, respectively.

In the next assay the target is T1, rTRPV1 (Rattus norvegicus, UniProt O35433).
T1 construct: expressed in transfected cells; host or cells: HEK293T (ATCC CRL-11268)
Put plainly: Fluo-3 calcium imaging in TRPV1 transfected HEK293T cell line. The assay is classed as cell-based. The procedure: (§1) HEK293T cell line (ATCC CRL-1 1268) was transiently transfected with plasmid DNA containing polynucleotide encoding […] (SEQ. ID. NO: 1), rTRPV2 (SEQ. ID. NO: 2), mTRPV3 (SEQ. ID. NO: 3), rTRPV4 (SEQ. ID. NO: 4), mTRPM8 (SEQ. ID. NO: 5) or mTRPA1 (SEQ. ID. NO: 6).
(§2) Particularly, the HEK293T cell line was transiently transfected with individual TRP channel plasmid (pcDNA3.1 containing polynucleotide encoding rTRPV1, rTRPV2, mTRPV3, rTRPV4, mTRPM8 or mTRPA1), and 600 ng/well of pCDNA3 (Invitrogen Corp., USA; containing green fluorescent protein (GFP) cDNA) using Fugene6 (Roche Diagnostics, USA) according to manufacturer's instruction. The transformed cells were cultured in DMEM/F12 containing 10% FBS and 1% penicillin/streptomycin in a CO2 incubator for 24 hours. The cells were replated onto poly-L-lysine-coated glass coverslips, followed by further culture for 10-24 hours.
(§3) Particularly, the transfected cell line of Example <3-1> and Example <3-2> was loaded with Fluo-3AM (5 μM; Sigma Aldrich, USA) in the bath solution (140 mM NaCl, 5 mM KCl, 2 mM CaCl2, 1 mM MgCl2, 10 mM HEPES; adjusted to pH 7.4 with NaOH) containing 0.02% pluronic acid (Invitrogen, USA) at 37° C. for 1 hour. […]

A further assay has as its target T2, mTRPM8 (Mus musculus, UniProt Q8R4D5).
T2 construct: expressed in transfected cells; host or cells: HEK293T (ATCC CRL-11268)
The assay can be described thus: Fluo-3 calcium imaging in TRPM8 transfected HEK293T cell line. The assay is classed as cell-based. As for the experimental part: as §1, §2, §3

Assay [2] has as its system trigeminal neurons. The assay can be described thus: Whole-cell voltage-clamp recording in trigeminal neurons. The class given is cell-based, ICR mice.
In another assay the target is T3, mTRPA1 (Mus musculus, UniProt Q8BLA8).
T3 construct: expressed in transfected cells; host or cells: HEK293T (ATCC CRL-11268)
Put plainly: Fluo-3 calcium imaging in TRPA1 transfected HEK293T cell line. The assay is classed as cell-based. The procedure: as §1, §2, §3

The target of a further assay is T4, mTRPV3 (Mus musculus, UniProt Q8K424, A9V).
T4 construct: expressed in transfected cells; host or cells: HEK293T (ATCC CRL-11268)
T4 sequence (Q8K424 1-791 A9V): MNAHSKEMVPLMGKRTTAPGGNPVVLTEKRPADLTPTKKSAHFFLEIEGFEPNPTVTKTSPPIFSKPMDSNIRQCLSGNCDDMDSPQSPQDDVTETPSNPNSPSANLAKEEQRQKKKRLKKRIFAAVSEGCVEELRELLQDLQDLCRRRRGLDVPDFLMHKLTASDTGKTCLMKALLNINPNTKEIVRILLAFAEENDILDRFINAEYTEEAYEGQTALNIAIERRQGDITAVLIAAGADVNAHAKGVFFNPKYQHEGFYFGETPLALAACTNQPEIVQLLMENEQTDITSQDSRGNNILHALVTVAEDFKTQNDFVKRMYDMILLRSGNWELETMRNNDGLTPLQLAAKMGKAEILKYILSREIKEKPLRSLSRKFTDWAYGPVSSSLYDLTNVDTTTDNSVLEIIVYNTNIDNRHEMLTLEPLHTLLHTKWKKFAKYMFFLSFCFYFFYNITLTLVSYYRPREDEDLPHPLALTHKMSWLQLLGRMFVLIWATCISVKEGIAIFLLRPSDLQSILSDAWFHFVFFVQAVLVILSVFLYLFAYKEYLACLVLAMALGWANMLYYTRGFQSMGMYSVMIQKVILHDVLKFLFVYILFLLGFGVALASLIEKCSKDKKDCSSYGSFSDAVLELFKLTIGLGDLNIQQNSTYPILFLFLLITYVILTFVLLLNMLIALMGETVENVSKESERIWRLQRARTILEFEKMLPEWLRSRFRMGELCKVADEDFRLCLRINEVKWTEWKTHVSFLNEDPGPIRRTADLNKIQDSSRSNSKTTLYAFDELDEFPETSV
Put plainly: Fluo-3 calcium imaging in TRPV3 transfected HEK293T cell line. The class given is cell-based. As for the experimental part:
as §1, §2, §3

The target in the next assay is T5, rTRPV4 (Rattus norvegicus, UniProt Q9ERZ8).
T5 construct: expressed in transfected cells; host or cells: HEK293T (ATCC CRL-11268)
The assay can be described thus: Fluo-3 calcium imaging in TRPV4 transfected HEK293T cell line. The class given is cell-based. The procedure:
as §1, §2, §3

“Also recorded” adds a separate entry of the source.

T5 sequence (Q9ERZ8 whole entry): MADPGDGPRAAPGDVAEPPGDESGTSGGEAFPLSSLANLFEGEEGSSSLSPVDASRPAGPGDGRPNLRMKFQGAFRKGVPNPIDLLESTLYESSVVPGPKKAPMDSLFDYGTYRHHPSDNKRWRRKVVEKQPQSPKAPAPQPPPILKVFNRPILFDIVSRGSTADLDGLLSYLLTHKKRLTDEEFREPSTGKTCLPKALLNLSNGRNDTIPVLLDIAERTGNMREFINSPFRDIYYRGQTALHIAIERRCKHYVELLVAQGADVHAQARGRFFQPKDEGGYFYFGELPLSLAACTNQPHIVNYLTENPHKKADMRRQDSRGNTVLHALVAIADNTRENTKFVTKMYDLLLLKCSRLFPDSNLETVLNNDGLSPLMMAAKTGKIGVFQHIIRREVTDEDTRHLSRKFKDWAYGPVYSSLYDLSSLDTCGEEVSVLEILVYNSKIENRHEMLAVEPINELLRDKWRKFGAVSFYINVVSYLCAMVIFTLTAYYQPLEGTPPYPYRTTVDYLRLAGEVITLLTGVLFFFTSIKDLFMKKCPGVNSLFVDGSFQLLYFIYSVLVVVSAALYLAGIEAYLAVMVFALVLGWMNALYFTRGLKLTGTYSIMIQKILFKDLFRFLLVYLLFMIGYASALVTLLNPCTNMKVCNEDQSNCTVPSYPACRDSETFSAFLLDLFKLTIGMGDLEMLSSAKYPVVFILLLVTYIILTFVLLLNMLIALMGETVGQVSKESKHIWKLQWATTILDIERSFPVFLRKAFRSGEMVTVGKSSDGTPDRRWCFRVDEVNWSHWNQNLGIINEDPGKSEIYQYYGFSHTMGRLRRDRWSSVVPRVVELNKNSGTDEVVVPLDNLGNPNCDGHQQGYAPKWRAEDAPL
T3 sequence (Q8BLA8 whole entry): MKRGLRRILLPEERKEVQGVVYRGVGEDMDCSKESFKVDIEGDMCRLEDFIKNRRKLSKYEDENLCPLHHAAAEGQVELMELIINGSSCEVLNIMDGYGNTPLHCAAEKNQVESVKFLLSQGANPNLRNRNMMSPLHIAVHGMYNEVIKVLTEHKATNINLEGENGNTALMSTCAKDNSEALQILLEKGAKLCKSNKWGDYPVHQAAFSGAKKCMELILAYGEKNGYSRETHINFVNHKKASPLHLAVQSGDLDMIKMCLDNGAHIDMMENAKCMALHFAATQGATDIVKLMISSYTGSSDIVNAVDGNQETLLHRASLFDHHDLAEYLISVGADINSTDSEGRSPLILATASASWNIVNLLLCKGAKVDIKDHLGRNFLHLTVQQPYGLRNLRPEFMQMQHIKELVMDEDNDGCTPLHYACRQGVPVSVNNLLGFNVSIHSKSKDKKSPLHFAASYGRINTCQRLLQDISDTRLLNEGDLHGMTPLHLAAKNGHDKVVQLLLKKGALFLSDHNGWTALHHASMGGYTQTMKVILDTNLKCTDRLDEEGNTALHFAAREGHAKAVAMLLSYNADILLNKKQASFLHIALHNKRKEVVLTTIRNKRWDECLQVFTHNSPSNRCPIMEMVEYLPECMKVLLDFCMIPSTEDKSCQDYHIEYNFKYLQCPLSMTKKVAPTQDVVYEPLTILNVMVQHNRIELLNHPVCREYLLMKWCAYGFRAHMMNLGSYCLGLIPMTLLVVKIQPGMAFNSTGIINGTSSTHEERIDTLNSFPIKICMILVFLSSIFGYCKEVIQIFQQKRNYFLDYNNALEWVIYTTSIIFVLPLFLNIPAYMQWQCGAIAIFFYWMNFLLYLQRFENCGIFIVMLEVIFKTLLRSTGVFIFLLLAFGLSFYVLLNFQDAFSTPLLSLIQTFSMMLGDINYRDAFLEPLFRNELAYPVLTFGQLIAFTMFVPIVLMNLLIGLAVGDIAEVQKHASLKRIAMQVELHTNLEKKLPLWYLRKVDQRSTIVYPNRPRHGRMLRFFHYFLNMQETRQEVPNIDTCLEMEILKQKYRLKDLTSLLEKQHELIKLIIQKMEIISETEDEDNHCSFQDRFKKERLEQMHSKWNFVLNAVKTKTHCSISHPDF
T1 sequence (O35433 whole entry): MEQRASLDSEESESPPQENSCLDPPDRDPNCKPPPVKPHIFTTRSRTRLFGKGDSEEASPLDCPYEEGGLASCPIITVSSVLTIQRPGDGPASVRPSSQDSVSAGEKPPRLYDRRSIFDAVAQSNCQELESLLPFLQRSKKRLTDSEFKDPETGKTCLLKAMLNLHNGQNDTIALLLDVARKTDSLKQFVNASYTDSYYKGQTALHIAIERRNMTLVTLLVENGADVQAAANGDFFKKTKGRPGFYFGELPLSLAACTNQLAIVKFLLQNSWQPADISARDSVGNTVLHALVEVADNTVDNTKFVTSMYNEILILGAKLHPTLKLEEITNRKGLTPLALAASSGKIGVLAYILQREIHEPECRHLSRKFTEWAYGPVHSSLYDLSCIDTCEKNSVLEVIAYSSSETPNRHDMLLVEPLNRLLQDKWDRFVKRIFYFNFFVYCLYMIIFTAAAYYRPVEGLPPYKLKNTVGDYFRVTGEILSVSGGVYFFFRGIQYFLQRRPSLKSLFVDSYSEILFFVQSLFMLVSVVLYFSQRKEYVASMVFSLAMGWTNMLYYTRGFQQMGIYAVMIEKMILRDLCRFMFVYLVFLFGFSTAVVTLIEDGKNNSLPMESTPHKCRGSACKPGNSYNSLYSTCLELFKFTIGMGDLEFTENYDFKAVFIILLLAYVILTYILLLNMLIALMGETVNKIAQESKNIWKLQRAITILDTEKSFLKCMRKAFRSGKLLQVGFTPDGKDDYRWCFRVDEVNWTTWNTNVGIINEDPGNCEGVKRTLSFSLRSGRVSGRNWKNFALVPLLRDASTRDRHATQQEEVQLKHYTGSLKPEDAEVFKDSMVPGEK
T2 sequence (Q8R4D5 whole entry): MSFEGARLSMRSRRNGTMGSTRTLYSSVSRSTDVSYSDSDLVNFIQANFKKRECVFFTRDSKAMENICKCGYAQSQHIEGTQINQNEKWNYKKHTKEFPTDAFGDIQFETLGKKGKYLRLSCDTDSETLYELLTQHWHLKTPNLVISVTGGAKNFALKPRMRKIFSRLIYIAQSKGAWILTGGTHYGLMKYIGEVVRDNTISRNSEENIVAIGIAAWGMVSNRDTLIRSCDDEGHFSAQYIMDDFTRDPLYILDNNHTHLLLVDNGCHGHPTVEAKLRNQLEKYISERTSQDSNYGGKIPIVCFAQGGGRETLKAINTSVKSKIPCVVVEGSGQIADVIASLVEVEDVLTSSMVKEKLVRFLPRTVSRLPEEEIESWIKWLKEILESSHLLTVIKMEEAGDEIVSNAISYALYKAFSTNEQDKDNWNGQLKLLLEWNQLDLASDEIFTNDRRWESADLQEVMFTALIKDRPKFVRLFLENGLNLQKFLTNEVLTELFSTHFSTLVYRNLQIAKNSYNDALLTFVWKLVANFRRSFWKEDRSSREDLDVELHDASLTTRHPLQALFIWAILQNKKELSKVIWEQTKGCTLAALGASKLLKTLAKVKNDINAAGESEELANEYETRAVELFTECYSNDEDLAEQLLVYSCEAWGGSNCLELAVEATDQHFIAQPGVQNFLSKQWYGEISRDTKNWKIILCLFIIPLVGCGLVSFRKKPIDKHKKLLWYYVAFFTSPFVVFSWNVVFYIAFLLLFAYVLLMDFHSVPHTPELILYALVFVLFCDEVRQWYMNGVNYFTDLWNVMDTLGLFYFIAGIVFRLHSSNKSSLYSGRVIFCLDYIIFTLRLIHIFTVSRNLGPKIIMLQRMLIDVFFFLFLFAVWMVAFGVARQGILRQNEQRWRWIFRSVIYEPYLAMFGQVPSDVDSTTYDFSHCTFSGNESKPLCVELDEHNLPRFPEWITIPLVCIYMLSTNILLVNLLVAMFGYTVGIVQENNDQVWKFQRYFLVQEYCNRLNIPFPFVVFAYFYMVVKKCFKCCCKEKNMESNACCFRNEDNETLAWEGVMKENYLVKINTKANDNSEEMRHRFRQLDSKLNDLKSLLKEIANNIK

As for `CCCN(CCC)S(=O)(=O)c1ccc(C(=O)O)cc1` [probenecid], the “calcium influx in a trigeminal neuron group” value in the assay on trigeminal neurons [1] is “calcium influx induced”. Besides, in the assay on trigeminal neurons [1] (2 μM capsaicin), the “neurons sensitive to probenecid among neurons responding to capsaicin” value was 5 out of 111 and the “share of capsaicin-sensitive neurons that responded to probenecid” value amounted to 3.5%. Moreover, the “response of 2-APB reactive neurons to probenecid” value in the assay on trigeminal neurons [1] (2-APB 300 μM) is “responded”. Besides, in the assay with trigeminal neurons [1] (capsaicin 2 μM, cinnamaldehyde 300 μM), the “response of major capsaicin-sensitive and all capsaicin/cinnamaldehyde-sensitive neuron groups to probenecid” value is given as “did not exhibit probenecid induced intracellular calcium influx”. In addition, in the assay on trigeminal neurons [1] (menthol 400 μM), the “response of menthol-reactive TRPM8 positive neurons to probenecid” value is “did not respond”. The “TRPV1 activation (calcium imaging)” value at rTRPV1 is recorded as “only TRPV2 was activated; also recorded: not confirmed”. The “TRPM8 activation (calcium imaging)” value on mTRPM8 is recorded as “only TRPV2 was activated; also recorded: not confirmed”. In addition, the “probenecid induced currents in 2-APB-sensitive trigeminal neurons” value with trigeminal neurons [2] was “exhibited outward rectifying”. Moreover, the “TRPA1 activation (calcium imaging)” value at mTRPA1 is “only TRPV2 was activated; also recorded: not confirmed”. On mTRPV3, the “TRPV3 activation (calcium imaging)” value was “only TRPV2 was activated; also recorded: not confirmed”. Besides, the “TRPV4 activation (calcium imaging)” value at rTRPV4 is given as “only TRPV2 was activated; also recorded: not confirmed”.

Values taken from patent US7915012B2, “Methods for screening for inhibitors of TRPV2 activation” (Korea University Industry and Academic Collaboration …, priority 2008, dated 2011).
